Experimental findings from publication PMC10384602 (Pharmaceuticals, 2023) are described below.

Structures are written as SMILES. Bounds are passed on as bounds.

A short description of series [1]: logD7.4 in octanol/buffer mixture. The class given is physicochemical. To be noted: pH 7.4, room temperature.
Series [2] is described as follows: Radiochemical stability of the formulated product on standing at room temperature. Format: physicochemical. The settings on record: after standing for 90 min at room temperature.

For the compound `O=C(Cc1ccccc1)Nc1nnc(CCSCCc2nnc(N[11C](=O)Cc3ccccc3)s2)s1` [[^11C]BPTES], the logD (commonly the decadic logarithm of the distribution of all forms, ionised or not, between an organic phase and buffer at a given pH) in series [1] amounted to 3.59. Moreover, in series [2], the “radiochemical purity after standing” value is over 95%.
